Test: Water Vapour Sorption (dynamic vapour experiments)
Format: physicochemical
Conditions: 25° C., up to 98% relative humidity, acc. to Ph. Eur. criteria
Description: Preferably, the anhydrates as described herein and especially the crystalline form A1 can be characterised, alternatively or additionally, by dynamic vapour experiments. The results can be obtained by standard techniques as described in Rolf Hilfiker, ‘Polymorphism in the Pharmaceutical Industry’, Wiley-VCH. Weinheim 2006 (Chapter 9: Water Vapour Sorption, and references therein). […] Eur. criteria.

hygroscopicity (Water Vapour Sorption behaviour): non-hygroscopic
Structure (SMILES): CC(C)[C@H]1C(=O)N[C@@H](CCCNC(=N)N)C(=O)NCC(=O)N[C@@H](CC(=O)O)C(=O)N[C@H](Cc2ccccc2)C(=O)N1C [crystalline form A1, cyclo-(Arg-Gly-Asp-DPhe-NMeVal)]

From patent US10478501B2, “Method of treating disorders using a pharmaceutical composition of oligopeptides” (Merck Patent GmbH, priority 2011, dated 2019)
